Measured values as given in PMC11596549 (Metabolites, 2024).
Read-outs that look alike come from different tables or passages of the source. Values belong to the compound of their own block, whether it stands above or below them.

Assays:
[1] = cited from earlier work; for change of serum concentrations of ARI and AM versus control group / effect on D-ARI concentration / higher mean dose-adjusted concentration of ARI: TDM database; for effect on D-ARI concentration / higher mean dose-adjusted concentration of ARI: ARI combined with the antidepressant
[2] = cited from earlier work
[3] = Pharmacokinetic drug interaction study: aripiprazole single dose alone or after 6-day bupropion pretreatment, LC-MS/MS quantification, non-compartmental analysis; settings: for Vz_F / AUC(0-inf) / CL/F / Cmax / MRT / Tmax / k el: aripiprazole in rat plasma; for Vz_F / AUC(0-t) / AUC(0-inf) / CL/F / Cmax / MRT / Tmax / k el / half-life: mean ± S.D.; for AUC(0-t) / AUC(0-inf) / CL/F / Cmax / MRT / Tmax / k el / half-life: male, Wistar albino, rat, plasma, po, 8 mg/kg; for AUC(0-t): AUC0–30, aripiprazole in rat plasma; for AUC(0-inf): AUC0–∞; for CL/F: Cl_F; for k el: kel; for half-life: t1/2, aripiprazole in rat plasma
Description: The suspension was vortex-mixed before each administration. We considered 15 mg ARI a usual therapeutic dose in humans. We multiplied by 10 the dose for rats/kg, but a higher dose of 8 mg/kg body weight (b.w.) was chosen to be suitable for detection in rat plasma, considering the analytical method sensitivity. […] We administered 43 mg/kg b.w. in rats, multiplying the target dose in humans of 300 mg/day by 10.
Twenty-four Wistar albino male rats were divided into two groups.
The collection of blood samples was carried out using the BASi Culex ABC®-Automatic Blood Collector device (BASi, West Lafayette, IN, USA). This facilitated the collection of exact volumes per sample and at exact times post-administration. One day prior to blood sample collection, rats in both groups went through a surgical procedure consisting of a cannula insertion on the femoral vein under intramuscular anesthesia (0.1 mL/100 g b.w. of 1:1 ketamine and xylazine solution), which allowed the device to have access to the rats’ bloodstream. The excess blood drawn on the catheter was returned to the animal along with saline, replacing the volume of blood collected to avoid fluid depletion.
Blood samples, 200 μL each, were automatically drawn in heparinized Eppendorf tubes at 10, 20, 30, 45 min, 1, 1.5, 2, 2.5, 3, 4, 6, 8, 10, 12, 16, 20, 24 and 30 h after ARI single-dose administration in the two experimental groups, and they were immediately placed at −20 °C until further analysis.
Samples were precipitated using acetonitrile. For a 0.1 mL blood sample, 0.3 mL of acetonitrile were added. After the samples were vortex-mixed with IKA Vortex 2 (1000 rpm) for 10 s and centrifuged for 5 min at 10,000 rpm using a Sigma 3-30KS centrifuge (9168× g), the supernatant was injected into the HPLC system.
For concomitant quantification of ARI and D-ARI, a validated reverse-phase liquid chromatography coupled with tandem mass spectrometry (LC-MS/MS) method was developed. The HPLC system Agilent 1100 series with a binary pump, autosampler and thermostat (Agilent Technologies, Santa Clara, CA, USA) was used. The Bruker Ion Trap SL (Bruker Daltonics GmbH, Bremen, Germany) was used for detection. […] Haloperidol spiked into the thawed blood samples was used as an internal standard. The mobile phase consisted of water and 0.3% (m/v) formic acid as eluent A and acetonitrile as eluent B, eluted in a linear gradient (start with 20% acetonitrile, up to 2.5 min 38% acetonitrile, keep at 38% acetonitrile until 4.2 min, re-equilibrate with 20% acetonitrile for 2 min). The injection volume was 5 μL, the flow rate was 1 mL/min and the thermostat temperature was set at 40 °C. The MS detection was in multiple reaction monitoring mode (MRM), and the ESI-MS spectra were recorded in positive ion mode. The following mass transitions were used for analyte quantification: m/z 448 → m/z 285 for ARI, m/z 446 → m/z 285 for D-ARI and m/z 376 → m/z 165 for haloperidol. In these chromatographic conditions, the retention times were 2.80 min for haloperidol, 3.15 min for D-ARI and 3.55 min for ARI, respectively. The concentrations of the two analytes were determined by the instrument data system (QuantAnalysis software, Bruker Daltonics GmbH, Bremen, Germany) using peak area ratios versus concentration ratios of each analyte versus internal standard. The calibration curve model was determined for five calibration series by the linear least squares analysis, weighted (1/y2). […] The matrix effects were measured by comparing the response of the spiked plasma with the response of standards in solvent with the same concentration of ARI and D-ARI as in plasma, and for the measurement of the absolute recovery, a spike and a post-spiked sample were compared [31, 32].

[4] = co-medication, Japanese psychiatric patients
[5] = ARI 8 mg/kg single dose after 6-day BUP 43 mg/kg pretreatment (test, n = 12)
[6] = ARI 8 mg/kg single dose alone (reference, n = 12)
[7] = rats, after BUP repeated doses vs ARI alone

SMILES: CN[C@H]1CC[C@@H](c2ccc(Cl)c(Cl)c2)c2ccccc21 [sertraline]
change of serum concentrations of ARI and AM versus control group ([1]; co-medication): no significant influence

SMILES: COc1ccc(C(CN(C)C)C2(O)CCCCC2)cc1 (centres unmarked) [venlafaxine]
change of serum concentrations of ARI and AM versus control group ([1]; co-medication): no significant influence

SMILES: CNCCC(Oc1ccc(C(F)(F)F)cc1)c1ccccc1 (centres unmarked) [fluoxetine]
effect on D-ARI concentration [1]: no effect
higher mean dose-adjusted concentration of ARI [1]: 45%
increase of the C/D ratio of ARI compared to ARI monotherapy ([1]; routine TDM service, concomitant use): 44%

SMILES: Fc1ccc([C@@H]2CCNC[C@H]2COc2ccc3c(c2)OCO3)cc1 [paroxetine]
effect on D-ARI concentration [1]: no effect
higher mean dose-adjusted concentration of ARI [1]: 45%
increase of the plasma concentrations of ARI [1, 4]: 1.7 fold
increase of the plasma concentrations of the active moiety (AM) [1, 4]: 1.5 fold

Vz_F [3, 5]: 20.67 ± 27.53 L/kg
Vz_F [3, 6]: 121.64 ± 143.94 L/kg
AUC(0-t) [3, 5]: 5390 ± 2980 ng·h/mL
AUC(0-t) [3, 6]: 1110 ± 931 ng·h/mL
AUC(0-inf) [3, 5]: 6310 ± 2980 ng·h/mL
AUC(0-inf) [3, 6]: 1120 ± 931 ng·h/mL
CL/F [3, 5]: 26.2 mL/min/kg
CL/F [3, 6]: 248 mL/min/kg
Cmax [3, 5]: 472 ± 217 ng/mL
Cmax [3, 6]: 240 ± 169 ng/mL
MRT [3, 5]: 19.2 ± 27.7 h
MRT [3, 6]: 4.63 ± 1.78 h
Tmax [3, 5]: 6.92 ± 2.47 h
Tmax [3, 6]: 1.65 ± 0.8 h
k el [3, 5]: 5e-05 s⁻¹
k el [3, 6]: 4.17e-05 s⁻¹
half-life [3, 5]: 11.5 ± 20.2 h
half-life [3, 6]: 5.56 ± 3.13 h
decrease of the apparent systemic clearance of ARI [3, 7]: over 9 fold
increase of the mean AUC0–30 of ARI [3, 7]: 4.85 fold
increase of the mean AUC0–∞ of ARI [3, 7]: 5.65 fold
increase of the mean Cmax of ARI [3, 7]: 96.76%
increase of the mean Cmax of ARI ([3]; rats, after BUP repeated doses vs ARI alone, listed as ARI): 2 fold
SMILES: O=C1CCc2ccc(OCCCCN3CCN(c4cccc(Cl)c4Cl)CC3)cc2N1 [Aripiprazole]
absolute oral bioavailability (F) [2]: 87%
binding to plasma proteins [2]: > 99%
time to reach maximum plasma concentration [2]: 3 to 5 h
time to reach steady-state [2]: 14 days
elimination t1/2 ([2]; poor metabolizers (PMs)): 146 h

SMILES: CC(NC(C)(C)C)C(=O)c1cccc(Cl)c1 (centres unmarked) [BUP, Bupropion]
oral bioavailability [2]: 90%

SMILES: CNCC[C@H](Oc1cccc2ccccc12)c1cccs1 [duloxetine]
increase of the plasma concentrations of ARI ([1]; large TDM database, co-medication): 54.2%

SMILES: CN(C)CCC[C@@]1(c2ccc(F)cc2)OCc2cc(C#N)ccc21 [Escitalopram]
change of serum concentrations of ARI and AM versus control group ([1]; co-medication): slight but statistically significant
change of the systemic exposure to the AM ([1]; co-medication with ARI): did not significantly change
